Assay results: patent US9428519B2, “Acylated derivative of homoharringtonine, preparation method therefor, and application thereof” (HANGZHOU BENSHENG PHARMACEUTICAL CO., LTD., priority 2011, dated 2016)
≈ marks a conversion by molar mass, not a printed value.

Columns and labels:
[1] = tested on: RPMI8226 (multiple myeloma); assay: MTT growth inhibition of multiple myeloma cells, 72 h; type: cell-based, human; details: Homo sapiens, RPMI-8226, MTT
Protocol: Multiple myeloma and lymphoma cell lines: RPMI8226 (multiple myeloma), purchased from Fuxiang Bio-tech Co. Ltd., Shanghai, China.
(§1) Obtaining 6000 well-growing leukemia cells and inoculating them into wells of a 96-well cell culture plate. The culture medium is the 1640 cell culture medium containing 10% fetal bovine serum. After adding the homoharringtonine derivatives of different concentrations and mixing uniformly, placing the plate in a carbon dioxide cell incubator (5% CO2) at 37° C. and incubated for 72 hours. Then the viable cell concentration is determined by the MTT method. In this experiment, the cell viability in control group (not treated with any compound) is set as 100%. On such basis, the cell viability (%) after treatment and the 50% inhibiting concentration of the compound for the leukemia cell growth at 72 hours (IC50 value of 72 hours) are calculated.

[2] = tested on: SK-OV-3 (ovarian cancer cell); assay: MTT growth inhibition of human solid tumor cells, 72 h; type: cell-based; details: Homo sapiens, SK-OV-3, MTT
Protocol: (§2) Human solid tumor cell lines: Hep-2 (laryngeal carcinoma), A549 (human lung cancer), CaES-17 (esophageal cancer cell), PC-3 (prostate cancer), CNE (nasopharyngeal carcinoma cell), and SK-OV-3 (ovarian cancer cell), all of which are purchased from China Center For Type Culture Collection; RKO (human colon adenocarcinoma cell), MGC 803 (human gastric cancer cell), MG63 (osteosarcoma) and U87 MG (malignant glioma cell), all of which are purchased from Fuxiang Bio-tech Co. Ltd., Shanghai, China; PANC-1 (pancreatic cancer), Huh7 (human liver cancer cell), Becap37 (human breast cancer cell), and Hela (human cervical cancer cell), all of which are donated by Cancer Research Institute of Zhejiang University, China.
(§3) Obtaining 4000 well-growing human solid tumor cells and inoculating them into wells of a 96-well cell culture plate. The culture medium is DMEM High Glucose cell culture medium containing 10% fetal bovine serum. The plate is placed in a carbon dioxide cell incubator (5% CO2) at 37° C. and incubated for 24 hours. After adding the homoharringtonine derivatives of different concentration and mixing uniformly, the plate is placed in a carbon dioxide cell incubator (5% CO2) at 37° C. and incubated for 72 hours. Then the viable cell concentration is determined by the MTT method and the cell viability (%) after drug treatment is calculated. In this experiment, the cell viability of control group (not treated with any compound) is set as 100%.

[3] = tested on: Becap37 (human breast cancer cell); assay: as above; type: cell-based; details: Homo sapiens
Protocol: as §2, §3

[4] = tested on: Hep-2 (laryngeal carcinoma); assay: as above; type: cell-based; details: Homo sapiens, HEp-2
Protocol: as §2, §3

[5] = tested on: Hela (human cervical cancer cell); assay: as above; type: cell-based; details: for IC50 / IC90: Homo sapiens, HeLa, MTT
Protocol: as §2, §3

[6] = tested on: RKO (human colon adenocarcinoma cell); assay: as above; type: cell-based; details: Homo sapiens, MTT
Protocol: as §2, §3

[7] = tested on: CNE (nasopharyngeal carcinoma cell); assay: as above; type: cell-based; details: for IC50 / IC90: Homo sapiens, MTT; for anti-CNE effect relative to homoharringtonine: vs HHT
Protocol: as §2, §3

[8] = tested on: CaES-17 (esophageal cancer cell); assay: as above; type: cell-based; details: Homo sapiens, CaEs17
Protocol: as §2, §3

PC-3 (prostate cancer) = assay: as above; type: cell-based; details: for IC50 / IC90: Homo sapiens, MTT
Protocol: as §2, §3

[9] = tested on: Huh7 (human liver cancer cell); assay: as above; type: cell-based; details: Homo sapiens, Huh-7
Protocol: as §2, §3

A549 (human lung cancer) = assay: as above; type: cell-based; details: Homo sapiens, A549
Protocol: as §2, §3

[10] = tested on: MGC 803 (human gastric cancer cell); assay: as above; type: cell-based; details: Homo sapiens, MGC-803
Protocol: as §2, §3

[11] = tested on: PANC-1 (pancreatic cancer); assay: as above; type: cell-based; details: Homo sapiens, PANC-1, MTT
Protocol: as §2, §3

MG63 (osteosarcoma) = assay: as above; type: cell-based; details: for IC50 / IC90: Homo sapiens, MG-63, MTT
Protocol: as §2, §3

[12] = tested on: U87 MG (malignant glioma cell); assay: as above; type: cell-based; details: Homo sapiens, U-87 MG
Protocol: as §2, §3

[13] = tested on: Kasumi-1 (acute myeloid leukemia M2 type, AML-M2); assay: MTT growth inhibition of leukemia cells, 72 h; type: cell-based, human; details: for IC50 / IC90: Homo sapiens, Kasumi 1, MTT
Source text: (§4) Leukemia cell lines: leukemia cell lines: K562/adr (drug-resistant, chronic myeloid leukemia, CML), NB4 (acute promyelocytic leukemia, AML), Kasumi-1 (acute myeloid leukemia M2 type, AML-M2), Jurkat (acute lymphoblastic leukemia, ALL), all of which are donated by Cancer Research Institute of Zhejiang University, China; and H9 (acute lymphoblastic leukemia, ALL), which is purchased from China Center for Type Culture Collection (CCTCC).
(§5) Reagents: The standard sample of homoharringtonine (HHT) is purchased from Taihua Natural Plant Pharmaceutical Co., Ltd., Shaanxi, China, the homoharringtonine derivatives of the present invention.
as §1

[14] = tested on: NB4 (acute promyelocytic leukemia, AML); assay: MTT growth inhibition of leukemia cells, 72 h; type: cell-based, human; details: for IC50 / IC90: Homo sapiens, MTT
Source text: as §4, §5, §1

[15] = tested on: Jurkat (acute lymphoblastic leukemia, ALL); assay: MTT growth inhibition of leukemia cells, 72 h; type: cell-based, human; details: Homo sapiens, Jurkat
Source text: as §4, §5, §1

[16] = tested on: K562/adr (drug-resistant, chronic myeloid leukemia, CML); assay: MTT growth inhibition of leukemia cells, 72 h; type: cell-based, human; details: for IC50 / IC90: Homo sapiens, K562/Adr, MTT
Source text: as §4, §5, §1

[17] = tested on: H9 (acute lymphoblastic leukemia, ALL); assay: MTT growth inhibition of leukemia cells, 72 h; type: cell-based, human; details: for IC50 / IC90: Homo sapiens, MTT
Source text: as §4, §5, §1

## COC(=O)C[C@](O)(CCCC(C)(C)OC(=O)Cc1ccccc1)C(=O)O[C@@H]1C(OC)=C[C@]23CCCN2CCc2cc4c(cc2[C@H]13)OCO4 [BS-HH-074]
[1]
  IC50: 3 ng/mL (≈ 0.00452 µM)
  IC90: 0.015 µg/mL (≈ 0.0226 µM)
[2]
  IC50: 0.027 µg/mL (≈ 0.0407 µM)
  IC90: > 16 µg/mL
[3]
  IC50: 3 ng/mL (≈ 0.00452 µM)
  IC90: 8.38 µg/mL (≈ 12.6 µM)
[4]
  IC50: 6 ng/mL (≈ 0.00904 µM)
  IC90: > 16 µg/mL
[5]
  IC50: 3.4 ng/mL (≈ 0.00512 µM)
  IC90: 12.6 µg/mL (≈ 19 µM)
[5]; vs HHT
  anti-Hela effect relative to homoharringtonine: > 5.6 fold
[6]
  IC50: 2 ng/mL (≈ 0.00301 µM)
  IC90: 0.006 µg/mL (≈ 0.00904 µM)
[7]
  IC50: 1.4 ng/mL (≈ 0.00211 µM)
  IC90: > 16 µg/mL
  anti-CNE effect relative to homoharringtonine: > 27 fold
[8]
  IC50: 0.015 µg/mL (≈ 0.0226 µM)
  IC90: 16 µg/mL (≈ 24.1 µM)
PC-3 (prostate cancer)
  IC50: 0.0077 µg/mL (≈ 0.0116 µM)
  IC90: > 16 µg/mL
PC-3 (prostate cancer); vs HHT
  anti-PC-3 effect relative to homoharringtonine: more than 10 fold
[9]
  IC50: 3 ng/mL (≈ 0.00452 µM)
  IC90: 0.05 µg/mL (≈ 0.0753 µM)
A549 (human lung cancer)
  IC50: 0.007 µg/mL (≈ 0.0105 µM)
  IC90: > 16 µg/mL
[10]
  IC50: 0.006 µg/mL (≈ 0.00904 µM)
  IC90: 0.055 µg/mL (≈ 0.0829 µM)
[11]
  IC50: 0.014 µg/mL (≈ 0.0211 µM)
  IC90: > 16 µg/mL
MG63 (osteosarcoma)
  IC50: 0.006 µg/mL (≈ 0.00904 µM)
  IC90: 1.18 µg/mL (≈ 1.78 µM)
MG63 (osteosarcoma); vs HHT
  anti-MG63 effect relative to homoharringtonine: substantially superior
[12]
  IC50: 0.012 µg/mL (≈ 0.0181 µM)
  IC90: 0.08 µg/mL (≈ 0.121 µM)
[13]
  IC50: 1 ng/mL (≈ 0.00151 µM)
  IC90: 5 ng/mL (≈ 0.00753 µM)
[13]; vs HHT
  improvement of anti-Kasumi-1 activity compared with homoharringtonine: more than 5 fold
[14]
  IC50: 3 ng/mL (≈ 0.00452 µM)
  IC90: 0.007 µg/mL (≈ 0.0105 µM)
[14]; vs HHT
  improvement of anti-NB4 activity compared with homoharringtonine: more than 2 fold
[15]
  IC50: 3.8 ng/mL (≈ 0.00572 µM)
  IC90: ≥ 16 µg/mL
[16]
  IC50: 7 ng/mL (≈ 0.0105 µM)
  IC90: 14.1 µg/mL (≈ 21.2 µM)
[16]; vs HHT
  improvement of anti-K562/adr activity compared with homoharringtonine: more than 5 fold
[17]
  IC50: 4 ng/mL (≈ 0.00603 µM)
  IC90: 0.01 µg/mL (≈ 0.0151 µM)
[17]; vs HHT
  improvement of anti-H9 activity compared with homoharringtonine: more than 2 fold

## COC(=O)C[C@](O)(CCCC(C)(C)OC(=O)C1CCCC1)C(=O)O[C@@H]1C(OC)=C[C@]23CCCN2CCc2cc4c(cc2[C@H]13)OCO4 [BS-HH-077]
[1]
  IC50: 4 ng/mL (≈ 0.00623 µM)
  IC90: 0.024 µg/mL (≈ 0.0374 µM)
[2]
  IC50: 0.034 µg/mL (≈ 0.053 µM)
  IC90: > 16 µg/mL
[3]
  IC50: 7 ng/mL (≈ 0.0109 µM)
  IC90: 11.1 µg/mL (≈ 17.3 µM)
[4]
  IC50: 7 ng/mL (≈ 0.0109 µM)
  IC90: > 16 µg/mL
[5]
  IC50: 14 ng/mL (≈ 0.0218 µM)
  IC90: 16 µg/mL (≈ 24.9 µM)
[6]
  IC50: 6 ng/mL (≈ 0.00935 µM)
  IC90: 0.02 µg/mL (≈ 0.0312 µM)
[7]
  IC50: 12 ng/mL (≈ 0.0187 µM)
  IC90: > 16 µg/mL
  anti-CNE effect relative to homoharringtonine: more than 3 fold
[8]
  IC50: 0.031 µg/mL (≈ 0.0483 µM)
  IC90: 16 µg/mL (≈ 24.9 µM)
PC-3 (prostate cancer)
  IC50: 0.039 µg/mL (≈ 0.0608 µM)
  IC90: > 16 µg/mL
[9]
  IC50: 16 ng/mL (≈ 0.0249 µM)
  IC90: 0.36 µg/mL (≈ 0.561 µM)
A549 (human lung cancer)
  IC50: 0.02 µg/mL (≈ 0.0312 µM)
  IC90: > 16 µg/mL
[10]
  IC50: 0.021 µg/mL (≈ 0.0327 µM)
  IC90: 0.087 µg/mL (≈ 0.136 µM)
[11]
  IC50: 0.055 µg/mL (≈ 0.0857 µM)
  IC90: > 16 µg/mL
MG63 (osteosarcoma)
  IC50: 0.021 µg/mL (≈ 0.0327 µM)
  IC90: 5.14 µg/mL (≈ 8.01 µM)
[12]
  IC50: 0.035 µg/mL (≈ 0.0545 µM)
  IC90: 0.16 µg/mL (≈ 0.249 µM)
[13]
  IC50: 4 ng/mL (≈ 0.00623 µM)
  IC90: 12 ng/mL (≈ 0.0187 µM)
[14]
  IC50: 9 ng/mL (≈ 0.014 µM)
  IC90: 0.022 µg/mL (≈ 0.0343 µM)
[15]
  IC50: 1 ng/mL (≈ 0.00156 µM)
  IC90: 11.4 µg/mL (≈ 17.7 µM)
[16]
  IC50: 10 ng/mL (≈ 0.0156 µM)
  IC90: 0.05 µg/mL (≈ 0.0779 µM)
[17]
  IC50: 10 ng/mL (≈ 0.0156 µM)
  IC90: 0.03 µg/mL (≈ 0.0467 µM)
